In patent US12459951B2, “Compounds that interact with RAS superfamily proteins for treatment of cancers, inflammatory diseases, rasopathies, and fibrotic disease” (SHY Therapeutics, LLC, priority 2022, dated 2025):

What was measured:
Akt phosphorylation = assay: Akt Phosphorylation Assay (western blot), Panc-1; assay type: cell-based, human; details: at 10 μM, * = activation
Procedure, shortened: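 Phospho-Akt (Ser473) was measured by western blot in lysates of KRas G12D Panc-1 cells exposed to test compound for 6 h at 37 °C, either at 10 μM final with 0.3% DMSO or as serial dilutions for IC50. One format used overnight 0.5% FBS starvation followed by a 15 min pulse of 1.5 ng/ml EGF. The other used cells in 10% FBS with no stimulation.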

Erk1/2 phosphorylation = assay: Erk1/2 Phosphorylation Assay (western blot), Panc-1; assay type: cell-based, human; details: at 10 μM, * = activation
Procedure, shortened: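 Phospho-Erk1/2 (Thr202/Tyr204) was detected by western blot in lysates of Panc-1 cells (KRas G12D). These had 6 h, 37° C exposure to 10 μM compound or a dilution series for IC50, in 0.3% DMSO. Cells were either starved overnight in 0.5% FBS with a 15-min 1.5 ng/ml EGF pulse, or kept unstimulated in 10% FBS.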

SMILES | % inh of Akt phosphorylation in Panc-1 (Akt phosphorylation) | % inh of Erk1/2 phosphorylation in Panc-1 (Erk1/2 phosphorylation)
CO[C@H]1CC[C@H](Nc2nc(-c3nccn3C)nn3cc(-c4ccn(C)n4)c(C(=O)NC4CC4)c23)C1 (racemic) [Compound 182, rac N-Cyclopropyl-4-(((1S,3S)-3-methoxycyclo-pentyl)amino)-2-(1-methyl-1H-imidazol-2-yl)-6-(1-methyl-1H-pyrazol-3-yl)pyrrolo[2,1-f][1,2,4]triazine-5-carboxamide] | B* (26-49% activation) | A* (1-25% activation)
Cc1ccc(Nc2nc(-c3nccn3C)nn3cc(-c4ccn(C)n4)c(C)c23)nc1 [Compound 226, 5-Methyl-2-(1-methyl-1H-imidazol-2-yl)-6-(1-methyl-1H-pyrazol-3-yl)-N-(5-methylpyridin-2-yl)pyrrolo[2,1-f][1,2,4]triazin-4-amine] | D* (85-100% activation) | A* (1-25% activation)
COc1ccnc(Nc2nc(-c3nccn3C)nn3cc(-c4c(F)cccc4OC)c(-c4ccccc4)c23)c1 [Compound 217, 6-(2-Fluoro-6-methoxyphenyl)-N-(4-methoxypyridin-2-yl)-2-(1-methyl-1H-imidazol-2-yl)-5-phenylpyrrolo[2,1-f][1,2,4]triazin-4-amine] | D* (85-100% activation) | D* (85-100% activation)
COc1cccc(-c2cn3nc(-c4nccn4C)nc(O)c3c2C)c1Cl [Compound 15, 6-(2-Chloro-3-methoxyphenyl)-5-methyl-2-(1-methyl-1H-imidazol-2-yl)pyrrolo[2,1-f][1,2,4]triazin-4-ol] | 0 (0% inhibition) | 0 (0% inhibition)
CO[C@H]1CC[C@@H](Nc2nc(-c3nccn3C)nn3cc(-c4cccnc4)c(-c4ccccc4)c23)C1 (racemic) [Compound 193, rac N-((1R,3S)-3-Methoxycyclopentyl)-2-(1-methyl-1H-imidazol-2-yl)-5-phenyl-6-(pyridin-3-yl)pyrrolo[2,1-f][1,2,4]triazin-4-amine] | D* (85-100% activation) | D* (85-100% activation)
Cc1c(-c2ccn(C)n2)cn2nc(-c3nccn3C)nc(Nc3cc(OCCNC(=O)CCCC[C@H]4SC[C@H]5NC(=O)N[C@H]54)ccn3)c12 [Compound 186, N-(2-((2-((5-Methyl-2-(1-methyl-1H-imidazol-2-yl)-6-(1-methyl-1H-pyrazol-3-yl)pyrrolo[2,1-f][1,2,4]triazin-4-yl)amino)pyridin-4-yl)oxy)ethyl)-5-((3aR,4R,6aS)-2-oxohexahydro-1H-thieno[3,4-d]imidazol-4-yl)pentanamide] | A* (1-25% activation) | A* (1-25% activation)
COCCNc1nc(-c2nccn2C)nn2cc(-c3cccc(OC)c3Cl)c(C)c12 [Compound 16, 6-(2-Chloro-3-methoxyphenyl)-N-(2-methoxyethyl)-5-methyl-2-(1-methyl-1H-imidazol-2-yl)pyrrolo[2,1-f][1,2,4]triazin-4-amine] | 0 (0% inhibition) | A (1-25% inhibition)
COc1cc(Nc2nc(-c3nccn3C)nn3cc(-c4ccn(C)n4)c(C)c23)ncc1C1CC1 [Compound 238, N-(5-Cyclopropyl-4-methoxypyridin-2-yl)-5-methyl-2-(1-methyl-1H-imidazol-2-yl)-6-(1-methyl-1H-pyrazol-3-yl)pyrrolo[2,1-f][1,2,4]triazin-4-amine] | D* (85-100% activation) | A (1-25% inhibition)
CO[C@H]1CC[C@H](Nc2nc(-c3nccn3C)nn3cc(-c4ccncc4)c(-c4ccccc4)c23)C1 (racemic) [Compound 201, rac N-((1S,3S)-3-Methoxycyclopentyl)-2-(1-methyl-1H-imidazol-2-yl)-5-phenyl-6-(pyridin-4-yl)pyrrolo[2,1-f][1,2,4]triazin-4-amine] | B (26-49% inhibition) | D* (85-100% activation)
COc1ccc(N(C)c2nc(-c3nccn3C)nn3cc(-c4ccn(C)n4)c(C)c23)nc1 [Compound 225, N-(5-Methoxypyridin-2-yl)-N,5-dimethyl-2-(1-methyl-1H-imidazol-2-yl)-6-(1-methyl-1H-pyrazol-3-yl)pyrrolo[2,1-f][1,2,4]triazin-4-amine] | A* (1-25% activation) | B (26-49% inhibition)
Cc1c(-c2ccn(C)n2)cn2nc(-c3nccn3C)nc(Nc3ccc(OCC(F)(F)F)cn3)c12 [Compound 230, 5-Methyl-2-(1-methyl-1H-imidazol-2-yl)-6-(1-methyl-1H-pyrazol-3-yl)-N-(5-(2,2,2-trifluoroethoxy)pyridin-2-yl)pyrrolo[2,1-f][1,2,4]triazin-4-amine] | D* (85-100% activation) | D* (85-100% activation)
CO[C@H]1C[C@H](Nc2nc(-c3nccn3C)nn3cc(-c4cccc(OCCN)c4)c(-c4ccccc4)c23)C1 [Compound 205, 6-(3-(2-Aminoethoxy)phenyl)-N-((1r,3r)-3-methoxycyclobutyl)-2-(1-methyl-1H-imidazol-2-yl)-5-phenylpyrrolo[2,1-f][1,2,4]triazin-4-amine] | C* (46-84% activation) | D* (85-100% activation)
COc1cccc(-c2cn3nc(-c4nccn4C)nc(N[C@H]4C[C@H](OC)C4)c3c2-c2ccccc2)c1OC [Compound 219, 6-(2,3-Dimethoxyphenyl)-N-((1r,3r)-3-methoxycyclobutyl)-2-(1-methyl-1H-imidazol-2-yl)-5-phenylpyrrolo[2,1-f][1,2,4]triazin-4-amine] | D (85-100% inhibition) | D (85-100% inhibition)
Cc1c(-c2ccn(C)n2)cn2nc(-c3nccn3C)nc(Nc3ccc(OC(F)(F)F)cn3)c12 [Compound 232, 5-Methyl-2-(1-methyl-1H-imidazol-2-yl)-6-(1-methyl-1H-pyrazol-3-yl)-N-(5-(trifluoro-methoxy)pyridin-2-yl)pyrrolo[2,1-f][1,2,4]triazin-4-amine] | D* (85-100% activation) | B* (26-49% activation)
Cc1cnc2c(c1)CCN2c1nc(-c2nccn2C)nn2cc(-c3ccn(C)n3)c(C)c12 [Compound 239, 5-Methyl-2-(1-methyl-1H-imidazol-2-yl)-6-(1-methyl-1H-pyrazol-3-yl)-4-(5-methyl-2,3-dihydro-1H-pyrrolo[2,3-b]pyridin-1-yl)pyrrolo[2,1-f][1,2,4]triazine] | D* (85-100% activation) | C* (46-84% activation)
COC[C@@H]1CC[C@@H]1CNc1nc(-c2ccccn2)nn2cc(-c3ccn(C(C)C)n3)c(C)c12 (racemic) [Compound 11, rac 6-(1-Isopropyl-1H-pyrazol-3-yl)-N-(((1S,2R)-2-(methoxymethyl)cyclobutyl)methyl)-5-methyl-2-(pyridin-2-yl)pyrrolo[2,1-f][1,2,4]triazin-4-amine] | 0 (0% inhibition) | 0 (0% inhibition)
COc1ccnc(Oc2nc(-c3nccn3C)nn3cc(-c4ccn(C)n4)c(C)c23)c1 [Compound 220, 4-((4-Methoxypyridin-2-yl)oxy)-5-methyl-2-(1-methyl-1H-imidazol-2-yl)-6-(1-methyl-1H-pyrazol-3-yl)pyrrolo[2,1-f][1,2,4]triazine] | A (1-25% inhibition) | A (1-25% inhibition)
COc1cc(Nc2nc(-c3nccn3C)nn3cc(-c4ccn(C)n4)c(C)c23)ncc1F [Compound 237, N-(5-Fluoro-4-methoxypyridin-2-yl)-5-methyl-2-(1-methyl-1H-imidazol-2-yl)-6-(1-methyl-1H-pyrazol-3-yl)pyrrolo[2,1-f][1,2,4]triazin-4-amine] | D* (85-100% activation) | 0 (0% inhibition)
Cn1ccnc1-c1nc(O)c2c(-c3ccccc3)c(-c3cccnc3)cn2n1 [Compound 189, 2-(1-Methyl-1H-imidazol-2-yl)-5-phenyl-6-(pyridin-3-yl)pyrrolo[2,1-f][1,2,4]triazin-4-ol] | B (26-49% inhibition) | A* (1-25% activation)
COc1ccnc(Nc2nc(-c3nccn3C)nn3cc(-c4ccn(CCNC(=O)CCCC[C@H]5SC[C@H]6NC(=O)N[C@H]65)n4)c(C)c23)c1 [Compound 215, N-(2-(3-(4-((4-methoxypyridin-2-yl)amino)-5-methyl-2-(1-methyl-1H-imidazol-2-yl)pyrrolo[2,1-f][1,2,4]triazin-6-yl)-1H-pyrazol-1-yl)ethyl)-5-((3aR,4R,6aS)-2-oxohexahydro-1H-thieno[3,4-d]imidazol-4-yl)pentanamide] | B* (26-49% activation) | A* (1-25% activation)
Cc1c(-c2ccn(C)n2)cn2nc(-c3nccn3C)nc(N)c12 [Compound 211, 5-Methyl-2-(1-methyl-1H-imidazol-2-yl)-6-(1-methyl-1H-pyrazol-3-yl)pyrrolo[2,1-f][1,2,4]triazin-4-amine] | A (1-25% inhibition) | A* (1-25% activation)
